Assays:
Prothrombin = Prothrombin (Homo sapiens, UniProt P00734); assay: Anticoagulant activity when interacted with Coagulation factor II
Coagulation factor X = Coagulation factor X (Homo sapiens, UniProt P00742); assay: Anticoagulant activity when interacted with Coagulation factor X
Rattus norvegicus = organism: Rattus norvegicus; assay: Relative inhibitory activity (ri) was measured in rat smooth muscle cells (SMC) at 100 ug/mL in comparison to that of Heparin; type: functional

Sequence of Coagulation factor X (P00742 41-179 limits assumed): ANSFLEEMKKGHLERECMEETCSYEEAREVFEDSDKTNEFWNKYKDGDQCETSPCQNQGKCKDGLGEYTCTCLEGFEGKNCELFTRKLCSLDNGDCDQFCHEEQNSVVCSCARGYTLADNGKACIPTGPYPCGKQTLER
Sequence of Coagulation factor X (P00742 235-488 limits assumed): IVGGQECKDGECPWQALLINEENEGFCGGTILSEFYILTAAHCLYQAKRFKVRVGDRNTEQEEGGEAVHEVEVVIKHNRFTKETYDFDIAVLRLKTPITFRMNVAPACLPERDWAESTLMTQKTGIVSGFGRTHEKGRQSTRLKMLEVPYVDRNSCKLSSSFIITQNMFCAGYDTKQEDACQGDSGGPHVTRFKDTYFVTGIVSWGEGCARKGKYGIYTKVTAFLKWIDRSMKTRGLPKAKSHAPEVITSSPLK

IC50 (Prothrombin) | IC50 (Coagulation factor X) | Compound | Relative inhibitory activity (Rattus norvegicus)
> 477 µM | > 477 µM | O=S(=O)([O-])OC[C@@H]1O[C@@H](O[C@H]2O[C@@H](COS(=O)(=O)[O-])[C@@H](O[C@@H]3O[C@@H](CO[C@H]4O[C@@H](COS(=O)(=O)[O-])[C@@H](OS(=O)(=O)[O-])[C@H](OS(=O)(=O)[O-])[C@@H]4OS(=O)(=O)[O-])[C@@H](OS(=O)(=O)[O-])[C@H](OS(=O)(=O)[O-])[C@@H]3OS(=O)(=O)[O-])[C@H](OS(=O)(=O)[O-])[C@@H]2OS(=O)(=O)[O-])[C@@H](OS(=O)(=O)[O-])[C@@H](OS(=O)(=O)[O-])[C@H]1OS(=O)(=O)[O-].[Na+].[Na+].[Na+].[Na+].[Na+].[Na+].[Na+].[Na+].[Na+].[Na+].[Na+].[Na+].[Na+].[Na+] | 0.9
> 477 µM | > 477 µM | O=S(=O)([O-])OC[C@@H]1O[C@H](O[C@H]2O[C@@H](COS(=O)(=O)[O-])[C@@H](O[C@@H]3O[C@@H](COS(=O)(=O)[O-])[C@@H](OS(=O)(=O)[O-])[C@H](OS(=O)(=O)[O-])[C@@H]3O[C@@H]3O[C@@H](COS(=O)(=O)[O-])[C@@H](OS(=O)(=O)[O-])[C@H](OS(=O)(=O)[O-])[C@@H]3OS(=O)(=O)[O-])[C@H](OS(=O)(=O)[O-])[C@@H]2OS(=O)(=O)[O-])[C@@H](OS(=O)(=O)[O-])[C@@H](OS(=O)(=O)[O-])[C@H]1OS(=O)(=O)[O-].[Na+].[Na+].[Na+].[Na+].[Na+].[Na+].[Na+].[Na+].[Na+].[Na+].[Na+].[Na+].[Na+].[Na+] | 0.3
> 506 µM | > 506 µM | C[C@@H]1O[C@@H](OC[C@@H]2O[C@@H](O[C@H]3[C@H](OS(=O)(=O)[O-])[C@H](OS(=O)(=O)[O-])[C@@H](O[C@H]4O[C@@H](COS(=O)(=O)[O-])[C@H](OS(=O)(=O)[O-])[C@H](OS(=O)(=O)[O-])[C@@H]4OS(=O)(=O)[O-])O[C@H]3COS(=O)(=O)[O-])[C@@H](OS(=O)(=O)[O-])[C@@H](OS(=O)(=O)[O-])[C@@H]2OS(=O)(=O)[O-])[C@H](OS(=O)(=O)[O-])[C@@H](OS(=O)(=O)[O-])[C@H]1OS(=O)(=O)[O-].[Na+].[Na+].[Na+].[Na+].[Na+].[Na+].[Na+].[Na+].[Na+].[Na+].[Na+].[Na+].[Na+] | 0.7
> 509 µM | > 509 µM | O=S(=O)([O-])OC[C@@H]1O[C@@H](O[C@@H]2[C@H](OS(=O)(=O)[O-])[C@@H](O[C@H]3[C@H](OS(=O)(=O)[O-])[C@H](OS(=O)(=O)[O-])[C@@H](O[C@H]4O[C@@H](COS(=O)(=O)[O-])[C@H](OS(=O)(=O)[O-])[C@H](OS(=O)(=O)[O-])[C@@H]4OS(=O)(=O)[O-])O[C@H]3COS(=O)(=O)[O-])OC[C@H]2OS(=O)(=O)[O-])[C@@H](OS(=O)(=O)[O-])[C@@H](OS(=O)(=O)[O-])[C@H]1OS(=O)(=O)[O-].[Na+].[Na+].[Na+].[Na+].[Na+].[Na+].[Na+].[Na+].[Na+].[Na+].[Na+].[Na+].[Na+] | 0.7
> 477 µM | > 477 µM | O=S(=O)([O-])OC[C@@H]1O[C@H](O[C@H]2O[C@@H](COS(=O)(=O)[O-])[C@@H](O[C@@H]3O[C@@H](COS(=O)(=O)[O-])[C@@H](OS(=O)(=O)[O-])[C@H](OS(=O)(=O)[O-])[C@@H]3O[C@H]3O[C@@H](COS(=O)(=O)[O-])[C@H](OS(=O)(=O)[O-])[C@H](OS(=O)(=O)[O-])[C@@H]3OS(=O)(=O)[O-])[C@H](OS(=O)(=O)[O-])[C@@H]2OS(=O)(=O)[O-])[C@@H](OS(=O)(=O)[O-])[C@@H](OS(=O)(=O)[O-])[C@H]1OS(=O)(=O)[O-].[Na+].[Na+].[Na+].[Na+].[Na+].[Na+].[Na+].[Na+].[Na+].[Na+].[Na+].[Na+].[Na+].[Na+] (stereo in doubt; 2) | 0.9
> 477 µM | > 477 µM | O=S(=O)([O-])OC[C@@H]1O[C@@H](O[C@H]2O[C@@H](COS(=O)(=O)[O-])[C@@H](O[C@@H]3O[C@@H](CO[C@H]4O[C@@H](COS(=O)(=O)[O-])[C@H](OS(=O)(=O)[O-])[C@H](OS(=O)(=O)[O-])[C@@H]4OS(=O)(=O)[O-])[C@@H](OS(=O)(=O)[O-])[C@H](OS(=O)(=O)[O-])[C@@H]3OS(=O)(=O)[O-])[C@H](OS(=O)(=O)[O-])[C@@H]2OS(=O)(=O)[O-])[C@@H](OS(=O)(=O)[O-])[C@@H](OS(=O)(=O)[O-])[C@H]1OS(=O)(=O)[O-].[Na+].[Na+].[Na+].[Na+].[Na+].[Na+].[Na+].[Na+].[Na+].[Na+].[Na+].[Na+].[Na+].[Na+] (stereo in doubt; 9) | 0.8
> 477 µM | > 477 µM | O=S(=O)([O-])OC[C@@H]1O[C@@H](O[C@H]2O[C@@H](COS(=O)(=O)[O-])[C@@H](O[C@@H]3O[C@@H](CO[C@H]4O[C@@H](COS(=O)(=O)[O-])[C@H](OS(=O)(=O)[O-])[C@H](OS(=O)(=O)[O-])[C@@H]4OS(=O)(=O)[O-])[C@@H](OS(=O)(=O)[O-])[C@H](OS(=O)(=O)[O-])[C@@H]3OS(=O)(=O)[O-])[C@H](OS(=O)(=O)[O-])[C@@H]2OS(=O)(=O)[O-])[C@@H](OS(=O)(=O)[O-])[C@@H](OS(=O)(=O)[O-])[C@H]1OS(=O)(=O)[O-].[Na+].[Na+].[Na+].[Na+].[Na+].[Na+].[Na+].[Na+].[Na+].[Na+].[Na+].[Na+].[Na+].[Na+] (stereo in doubt; 12) | 0.6
> 477 µM | > 477 µM | O=S(=O)([O-])OC[C@@H]1O[C@H](O[C@H]2O[C@@H](COS(=O)(=O)[O-])[C@@H](O[C@@H]3O[C@@H](COS(=O)(=O)[O-])[C@@H](OS(=O)(=O)[O-])[C@H](OS(=O)(=O)[O-])[C@@H]3O[C@H]3O[C@@H](COS(=O)(=O)[O-])[C@H](OS(=O)(=O)[O-])[C@H](OS(=O)(=O)[O-])[C@@H]3OS(=O)(=O)[O-])[C@H](OS(=O)(=O)[O-])[C@@H]2OS(=O)(=O)[O-])[C@@H](OS(=O)(=O)[O-])[C@@H](OS(=O)(=O)[O-])[C@H]1OS(=O)(=O)[O-].[Na+].[Na+].[Na+].[Na+].[Na+].[Na+].[Na+].[Na+].[Na+].[Na+].[Na+].[Na+].[Na+].[Na+] (stereo in doubt; 13) | 0.5
> 477 µM | > 477 µM | O=S(=O)(O)OC[C@@H]1O[C@H](O[C@H]2O[C@@H](COS(=O)(=O)O)[C@@H](O[C@@H]3O[C@@H](COS(=O)(=O)O)[C@@H](OS(=O)(=O)O)[C@H](OS(=O)(=O)O)[C@@H]3O[C@H]3O[C@@H](COS(=O)(=O)O)[C@H](OS(=O)(=O)O)[C@H](OS(=O)(=O)O)[C@@H]3OS(=O)(=O)O)[C@H](OS(=O)(=O)O)[C@@H]2OS(=O)(=O)O)[C@@H](OS(=O)(=O)O)[C@@H](OS(=O)(=O)O)[C@H]1OS(=O)(=O)O (stereo in doubt; 14) | 

From ChEMBL document CHEMBL1150528, “The heparin-like antiproliferative activity of sulfated tetrasaccharides is sensitive to structural variation” (Bioorg Med Chem Lett, 1995)
